Patent US9101613B2, “Methods for treating neurological disease” (Neurim Pharmaceuticals (1991) Ltd., priority 2006, dated 2015)
Read-outs that look alike come from different tables or passages of the source. Marks after values point to notes of the source that are not given here.

Legend:
5-HT2C receptor = target: T1, 5-HT2C receptor (Homo sapiens, UniProt P28335); experiment: Serotonin receptor binding, [3H] Mesulergine, CHO-K1 membranes
T1 construct: expressed in transfected cells; host or cells: CHO-K1
T1 sequence (P28335 33-458): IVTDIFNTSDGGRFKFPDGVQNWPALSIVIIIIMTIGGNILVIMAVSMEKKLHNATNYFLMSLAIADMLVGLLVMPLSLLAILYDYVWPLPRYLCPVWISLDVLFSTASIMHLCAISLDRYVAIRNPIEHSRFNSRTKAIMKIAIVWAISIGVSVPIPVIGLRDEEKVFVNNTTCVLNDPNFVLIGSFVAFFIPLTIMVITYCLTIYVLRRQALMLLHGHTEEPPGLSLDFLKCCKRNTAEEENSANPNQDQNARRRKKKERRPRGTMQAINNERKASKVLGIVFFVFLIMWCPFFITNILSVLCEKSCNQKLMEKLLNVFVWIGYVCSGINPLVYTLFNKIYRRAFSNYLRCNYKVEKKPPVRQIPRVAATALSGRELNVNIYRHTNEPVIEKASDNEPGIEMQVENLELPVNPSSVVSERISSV
Protocol: (§1) Aliquots of suspended membranes of human recombinant CHO-K1 cells stably expressing human 5-HT1A, 5-HT2A, 5-HT1B, 5-HT2B, 5-HT2C, 5-HT4, 5-HT6 or 5-HT7 receptors were pre-incubated at 25° C. with 1.5 nM [^3H] 8-OH-DPAT (5-HT1A), 1.5 nM [^3H] Ketanserin (5-HT2A), 0.01 nM [^125I] Cyanopindolol (5-HT1B), 1 nM [^3H] Mesulergine (5-HT2c), 0.7 nM [^3H] GR-113808 (5-HT4) or at 37° C. 1.2 nM [^3H] LSD (5-HT2B, 5-HT6 and 5-HT7) in buffer (50 mM Tris-HCl, pH 7.7) alone or in the presence of 1 nM, 10 nM, 0.1 μM, 1 μM, and 10 μM of N-[2-(5-methoxy-indol-3-yl)-ethyl]-commenamide, N-[2-(5-methoxy-indol-3-yl)-ethyl]-coumalylamide, N-[2-(5-methoxy-indol-3-yl)-ethyl]-comanilamide, N-[2-(5-methoxy-indol-3-yl)-ethyl]-2-methoxy-commenamide or N-[2-(5-methoxy-indol-3-yl)-ethyl]-chelidonamide for 60 minutes. The binding reaction was terminated and washed with 4 ml ice-cold 50 mM Tris-HCl buffer by vacuum filtration. Membranes were then collected, and the filters containing the bound ligands were assayed for the amount of radioactivity in a b-counter. Non-specific binding was evaluated using a reaction with 10 μM metergoline (5-HT1A), 1 μM mianserin (5-HT2A and 5-HT2c) or 10 μM serotonin (5-HT1B, 5-HT2B, 5-HT4, 5-HT6 and 5-HT7).

mice = experiment: Rotarod assay, interaction with diazepam; type: in vivo; settings: for Incidence of performance (rotarod): 15 rpm; for effect on rotarod performance: compound alone i.p., 15 rpm rotation speed;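 on Incidence of performance (rotarod): Success means running more than 120 min on the rod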
Protocol: The incidences of animals running more than […] on the rotating rod were noted, and significances were calculated by non-parametric x^2 test. 8 mice/group were used.
The rotarod apparatus is divided into five test zones, so that up to five mice may be tested at the same time. The rod has been specially machined to provide a suitable grip for the animal. The diameter of the rod is 3.5 cm. The rotation speed was 15 rpm. When the animal falls off the rotating rod, it presses a button to record automatically the time spent on the rod. On the day before the experiment the mice were trained to run on the rod rotating with 15 rpm. Diazepam was administered orally 60 min before the rotarod assay, test substances were administered intraperitoneally 15 min before testing.

5-HT1A receptor = target: T2, 5-HT1A receptor (Homo sapiens, UniProt P08908); experiment: Serotonin receptor binding, [3H] 8-OH-DPAT, CHO-K1 membranes
T2 construct: expressed in transfected cells; host or cells: CHO-K1
T2 sequence (P08908 1-422): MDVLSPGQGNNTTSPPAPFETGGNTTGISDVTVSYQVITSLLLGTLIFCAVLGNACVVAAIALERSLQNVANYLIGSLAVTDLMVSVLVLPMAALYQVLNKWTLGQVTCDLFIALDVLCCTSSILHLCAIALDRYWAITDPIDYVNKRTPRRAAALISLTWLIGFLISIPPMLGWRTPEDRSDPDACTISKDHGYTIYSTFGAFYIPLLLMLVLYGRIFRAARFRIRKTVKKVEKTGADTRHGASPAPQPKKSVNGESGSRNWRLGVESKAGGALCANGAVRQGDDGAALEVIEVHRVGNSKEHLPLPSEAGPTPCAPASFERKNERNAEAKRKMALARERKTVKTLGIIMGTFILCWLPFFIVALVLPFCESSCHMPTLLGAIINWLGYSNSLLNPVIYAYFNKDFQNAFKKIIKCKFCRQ
Protocol: as §1

5-HT2B receptor = target: T3, 5-HT2B receptor (Homo sapiens, UniProt P41595); experiment: Serotonin receptor binding, [3H] LSD, CHO-K1 membranes
T3 construct: expressed in transfected cells; host or cells: CHO-K1
Protocol: as §1

5-HT7 receptor = target: T4, 5-HT7 receptor (Homo sapiens, UniProt P34969); experiment: as above
T4 construct: expressed in transfected cells; host or cells: CHO-K1
Protocol: as §1

3T3-L1 adipocytes = experiment: 2-[3H]-deoxy-d-glucose uptake in FFA-treated 3T3-L1 adipocyte model; type: cell-based; settings: Insulin 20 nM + FFA 300 μM (3 h) + substance 10 nM
Protocol: Adipocytes were glucose-starved for 1 h in Hepes-salt buffer containing 2% FFA-free BSA. FFA (free fatty acids) were then added to the cells at the indicated concentrations (300 μM) for the indicated times (3 h). 10 min before the end of the FFA treatment, the cells were stimulated with insulin (20 nM)/melatonin (10 nM)/test compounds (10 nM) at 37° C. 2-[^3H]-deoxy-d-glucose at 1 μCi/mL and 0.1 mM unlabeled 2-deoxyglucose in KRP-HEPES buffer was added and cells were incubated for 10 min at room temperature. Non-specific glucose uptake was measured by parallel incubations in the presence of 10 μM cytochalasin B, which blocks transporter-mediated glucose uptake, and was subtracted from total uptake in each assay. Cells were then washed three times with ice-cold phosphate buffered saline (PBS) and solubilized in 1M NaOH for 20 minutes. The sample was then counted using a scintillation counter. 2-[^3H]-deoxy-d-glucose uptake was assayed in triplicates for each condition in at least 3 independent experiments. 2-[^3H]-deoxy-d-glucose uptake (counts per minute-cpm) are presented as mean+SE of triplicates in a representative experiment or results of three independent experiments. ANOVA test was used with significance of P<0.05 (Table 7).

5-HT1B receptor = target: T5, 5-HT1B receptor (Homo sapiens, UniProt P28222); experiment: Serotonin receptor binding, [125I] Cyanopindolol, CHO-K1 membranes
T5 construct: expressed in transfected cells; host or cells: CHO-K1
Protocol: as §1

5-HT2A receptor = target: T6, 5-HT2A receptor (Homo sapiens, UniProt P28223); experiment: Serotonin receptor binding, [3H] Ketanserin, CHO-K1 membranes
T6 construct: expressed in transfected cells; host or cells: CHO-K1
Protocol: as §1

[1] = Diazepam 1.5 mg/kg p.o. + compound 5 mg/kg i.p.
[2] = Diazepam 1.5 mg/kg p.o. + compound 20 mg/kg i.p.
[3] = Diazepam 1.5 mg/kg p.o. + compound 50 mg/kg i.p.
[4] = Vehicle p.o. + compound 5 mg/kg i.p.
[5] = Vehicle p.o. + compound 20 mg/kg i.p.
[6] = Vehicle p.o. + compound 50 mg/kg i.p.

T3 sequence (P41595 whole entry): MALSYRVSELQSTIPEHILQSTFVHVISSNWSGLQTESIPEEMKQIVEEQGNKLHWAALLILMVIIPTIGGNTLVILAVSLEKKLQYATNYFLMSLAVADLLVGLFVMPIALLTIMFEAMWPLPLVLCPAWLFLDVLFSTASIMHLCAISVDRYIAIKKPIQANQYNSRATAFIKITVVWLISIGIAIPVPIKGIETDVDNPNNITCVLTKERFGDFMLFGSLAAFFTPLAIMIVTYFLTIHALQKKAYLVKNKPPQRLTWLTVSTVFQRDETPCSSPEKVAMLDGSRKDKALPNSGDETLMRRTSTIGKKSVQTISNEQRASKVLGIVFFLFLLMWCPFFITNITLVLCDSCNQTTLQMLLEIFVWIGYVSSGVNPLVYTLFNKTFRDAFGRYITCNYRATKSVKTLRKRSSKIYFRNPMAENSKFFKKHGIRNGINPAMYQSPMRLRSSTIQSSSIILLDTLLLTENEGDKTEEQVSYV
T4 sequence (P34969 whole entry): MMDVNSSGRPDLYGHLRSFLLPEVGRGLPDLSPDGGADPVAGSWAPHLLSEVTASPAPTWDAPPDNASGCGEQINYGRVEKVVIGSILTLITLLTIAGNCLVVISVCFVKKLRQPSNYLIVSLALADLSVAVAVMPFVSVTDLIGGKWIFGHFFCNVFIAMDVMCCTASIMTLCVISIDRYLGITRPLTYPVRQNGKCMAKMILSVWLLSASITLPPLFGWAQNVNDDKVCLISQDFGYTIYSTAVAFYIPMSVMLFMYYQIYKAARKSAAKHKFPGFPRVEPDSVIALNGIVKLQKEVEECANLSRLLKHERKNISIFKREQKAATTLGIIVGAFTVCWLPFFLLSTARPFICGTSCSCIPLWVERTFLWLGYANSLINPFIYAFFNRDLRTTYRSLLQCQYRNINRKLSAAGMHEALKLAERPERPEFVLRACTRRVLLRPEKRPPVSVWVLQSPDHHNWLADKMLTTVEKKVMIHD
T5 sequence (P28222 whole entry): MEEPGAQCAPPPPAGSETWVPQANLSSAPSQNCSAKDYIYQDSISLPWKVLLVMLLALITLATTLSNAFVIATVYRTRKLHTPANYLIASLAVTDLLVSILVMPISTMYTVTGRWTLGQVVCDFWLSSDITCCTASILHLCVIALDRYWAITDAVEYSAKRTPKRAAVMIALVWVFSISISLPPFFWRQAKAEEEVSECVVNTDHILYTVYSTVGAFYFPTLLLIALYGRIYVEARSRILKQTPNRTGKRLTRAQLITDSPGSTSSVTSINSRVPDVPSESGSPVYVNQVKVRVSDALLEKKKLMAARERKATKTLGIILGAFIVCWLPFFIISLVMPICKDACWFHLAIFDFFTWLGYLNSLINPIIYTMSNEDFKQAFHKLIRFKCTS
T6 sequence (P28223 whole entry): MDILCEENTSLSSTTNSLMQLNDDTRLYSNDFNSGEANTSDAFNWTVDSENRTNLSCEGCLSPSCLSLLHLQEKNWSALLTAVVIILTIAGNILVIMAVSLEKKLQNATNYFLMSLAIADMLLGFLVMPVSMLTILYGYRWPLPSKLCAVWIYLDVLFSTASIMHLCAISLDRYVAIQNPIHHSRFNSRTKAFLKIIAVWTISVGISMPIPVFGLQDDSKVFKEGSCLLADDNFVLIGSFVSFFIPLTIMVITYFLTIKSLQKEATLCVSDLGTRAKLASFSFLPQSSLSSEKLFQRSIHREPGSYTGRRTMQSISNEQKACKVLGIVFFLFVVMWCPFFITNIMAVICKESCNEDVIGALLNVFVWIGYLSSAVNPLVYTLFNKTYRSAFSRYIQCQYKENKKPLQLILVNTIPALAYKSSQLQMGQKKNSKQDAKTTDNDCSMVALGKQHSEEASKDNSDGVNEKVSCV

Row | affinity to 5-HT7 (5-HT7 receptor) | IC50 (5-HT7 receptor; read-out: 5-HT7 IC50) [nM] | Ki (5-HT7 receptor; read-out: 5-HT7 KI) [nM] | IC50 (5-HT1B receptor; read-out: 5-HT1B IC50) [nM] | Ki (5-HT1B receptor; read-out: 5-HT1B KI) [nM] | Compound | Incidence of performance (rotarod) (mice; [1]) | Incidence of performance (rotarod) (mice; [2]) | Incidence of performance (rotarod) (mice; [3]) | Incidence of performance (rotarod) (mice; [4]) | Incidence of performance (rotarod) (mice; [5]) | Incidence of performance (rotarod) (mice; [6]) | effect on rotarod performance (mice) | affinity to 5-HT1A (5-HT1A receptor) | affinity to 5-HT2B (5-HT2B receptor) | 2-[3H]-deoxy-d-glucose uptake (cpm) (3T3-L1 adipocytes) | IC50 (5-HT1A receptor; read-out: 5-HT1A IC50) [nM] | Ki (5-HT1A receptor; read-out: 5-HT1A KI) [nM] | IC50 (5-HT2B receptor; read-out: 5-HT2B IC50) [nM] | Ki (5-HT2B receptor; read-out: 5-HT2B KI) [nM] | affinity to 5-HT1B (5-HT1B receptor) | further results
1 | moderate affinity | 735 | 420 | 5440 | 5160 | COc1ccc2[nH]cc(CCNC(=O)c3cc(=O)c(OC)co3)c2c1 [N-[2-(5-methoxy-indol-3-yl)-ethyl]-2-methoxy-commenamide] |  |  |  |  |  |  |  |  | moderate affinity | 1522 | 1930 | 1100 | 1760 | 1120 |  | 
2 |  |  |  |  |  | COc1ccc2[nH]cc(CCNC(=O)c3cc(=O)cc(C(=O)O)o3)c2c1 [N-[2-5-methoxy-indol-3-yl)-ethyl]-chelidonamide] |  |  |  |  |  |  |  | moderate affinity |  | 1407 | 1030 | 580 | 2100 | 1330 | moderate affinity | IC50 (5-HT2C receptor; read-out: 5-HT2C IC50): 11200 nM; Ki (5-HT2C receptor; read-out: 5-HT2C KI): 5800 nM; IC50 (5-HT2A receptor): 7500 nM; Ki (5-HT2A receptor): 2140 nM
3 | moderate affinity | 664 | 381 | 1640 | 1550 | COc1ccc2[nH]cc(CCNC(=O)c3ccc(=O)oc3)c2c1 [N-[2-(5-methoxy-indol-3-yl)-ethyl]-coumalylamide] |  |  |  |  |  |  |  |  |  | 1494 | 1970 | 650 | 3000 | 1910 | moderate affinity | 

Row | Compound | affinity to 5-HT7 (5-HT7 receptor) | IC50 (5-HT7 receptor; read-out: 5-HT7 IC50) [nM] | Ki (5-HT7 receptor; read-out: 5-HT7 KI) [nM] | IC50 (5-HT1B receptor; read-out: 5-HT1B IC50) [nM] | Ki (5-HT1B receptor; read-out: 5-HT1B KI) [nM] | Incidence of performance (rotarod) (mice; [1]) | Incidence of performance (rotarod) (mice; [2]) | Incidence of performance (rotarod) (mice; [3]) | Incidence of performance (rotarod) (mice; [4]) | Incidence of performance (rotarod) (mice; [5]) | Incidence of performance (rotarod) (mice; [6]) | effect on rotarod performance (mice) | affinity to 5-HT1A (5-HT1A receptor) | affinity to 5-HT2B (5-HT2B receptor) | 2-[3H]-deoxy-d-glucose uptake (cpm) (3T3-L1 adipocytes) | IC50 (5-HT1A receptor; read-out: 5-HT1A IC50) [nM] | Ki (5-HT1A receptor; read-out: 5-HT1A KI) [nM] | IC50 (5-HT2B receptor; read-out: 5-HT2B IC50) [nM] | Ki (5-HT2B receptor; read-out: 5-HT2B KI) [nM] | affinity to 5-HT1B (5-HT1B receptor) | further results
4 | COc1ccc2[nH]cc(CCNC(=O)c3cc(=O)c(O)co3)c2c1 [N-[2-(5-methoxy-indol-3-yl)-ethyl]-commenamide] | moderate affinity |  |  |  |  | 5/8 | 3/8** | 1/8*** | 8/8 | 5/8 | 5/8 | dose dependently impaired the performance | moderate affinity | moderate affinity | 1530 |  |  |  |  |  | IC50 (5-HT2C receptor): 7200 nM; Ki (5-HT2C receptor): 3800 nM; IC50 (5-HT1A receptor): 680 nM; Ki (5-HT1A receptor): 390 nM; IC50 (5-HT2B receptor): 2250 nM; Ki (5-HT2B receptor): 1430 nM; IC50 (5-HT7 receptor): 230 nM; Ki (5-HT7 receptor): 132 nM; IC50 (5-HT1B receptor): 3910 nM; Ki (5-HT1B receptor): 3710 nM
5 | COc1ccc2[nH]cc(CCNC(=O)c3cc(=O)cco3)c2c1 [N-[2-(5-methoxy-indol-3-yl)-ethyl]-comanilamide] |  |  |  | 2140 | 2030 | 4/8* | 2/8*** | 1/8*** | 6/8 | 5/8 | 5/8 | dose dependently impaired the performance |  |  | 1492 | 1950 | 1110 | 6780 | 4320 | moderate affinity | 
